Earlier results, collected in patent publication US20100056547A1, “OPHTHALMIC COMPOSITIONS COMPRISING dDC” (ALLERGAN, INC., priority 2005, published 2010).

Experiments:
adenoviral strains = conditions: for inhibition of adenoviral strains: Kaneko et al., J. Jpn. Ophthalmol. Soc. 107:196-201 (2003)
viral conjunctivitis = conditions: topical ophthalmic administration; Gordon et al., Cornea 15(5): 546, 1996

In the case of Nc1ccn(C[C@@H](CO)OCP(=O)(O)O)c(=O)n1 [HPMPC], the “inhibition of adenoviral strains” value (adenoviral strains) is given as “inhibited adenoviral strains”.
In the case of CCCCCCCCCCCCCCCCCCCCCCOCC(C)(COCCCCCCCCCCCCCCCCCCCCCC)CO[C@]1(C(=O)O)C[C@H](OS(=O)(=O)O)[C@@H](NC(C)=O)[C@H]([C@H](OS(=O)(=O)O)[C@@H](COS(=O)(=O)O)OS(=O)(=O)O)O1 [NMSO3], the “inhibition of adenoviral strains” value (adenoviral strains) is listed as “inhibited adenoviral strains” and the “EC50 values (ranking among NMSO3, HPMPC, dDC)” value (adenoviral strains; adenoviral strains, Kaneko et al. 2003) is listed as “lowest”.
In the case of Nc1ccn(C[C@@H](CO)OCP(=O)(O)O)c(=O)n1 [cidofavir], the “effectiveness in treating viral conjunctivitis” value (viral conjunctivitis) is listed as “effective”.
For Nc1ccn([C@H]2CC[C@@H](CO)O2)c(=O)n1 [dDC, 2′,3′-Dideoxycytidine], the “inhibition of adenoviral strains” value (adenoviral strains) is listed as “inhibited adenoviral strains”.
